Values quoted from earlier work as cited in PubChem BioAssay AID1259409 (Chemical Carcinogenesis Research Information System (CCRIS), 2018).

Tested on: rodent chemically induced tumor inhibition, incidence and multiplicity
Assay: CCRIS tumor inhibitor studies

What does the source list for `O=C1C=CC(=O)O1` (tested in a mixture with another compound)?
tumour outcome (control, treated, inhibition, significance) (Carcinogen: N-BUTYL-N-(4-HYDROXYBUTYL)NITROSAMINE, 3817-11-6, Dose [Inhibitor]: 12.5 MG/KG IN 4 WK CYCLES OF 1/WK FOR 3 WK AND 1 WK REST STARTING 1 WK AFTER CARCINOGEN ADMINISTRATION THROUGH END OF ST, Route [Inhibitor]: INTRAPERITONEAL, Species: MOUSE, Strain/Sex: BDF1/MALE, Target Tissue: Type of Lesion: URINARY BLADDER: TRANSITIONAL CELL CARCINOMA, Dose [Carcinogen]: 7.5 MG 1/WK FOR 8 WK, Promoter: NONE USED): 19/50 (38%), 14/50 (28%), 26%, not significant; tumour outcome (control, treated, inhibition, significance) (Carcinogen: N-BUTYL-N-(4-HYDROXYBUTYL)NITROSAMINE, 3817-11-6, Dose [Inhibitor]: 12.5 MG/KG IN 4 WK CYCLES OF 3 WK DOSE (1 DOSE/WK) AND 1 WK REST STARTING 1 WK AFTER CARCINOGEN DOSE THROUGH END OF STUD, Route [Inhibitor]: INTRAPERITONEAL, Species: MOUSE, Strain/Sex: DBF1/MALE, Target Tissue: Type of Lesion: URINARY BLADDER: TRANSITIONAL CELL CARCINOMA, Dose [Carcinogen]: 7.5 MG 1/WK FOR 8 WK, Promoter: NONE USED): 19/50 (38%), 14/50 (28%), 26%, not significant; tumour outcome (control, treated, inhibition, significance) (Carcinogen: N-BUTYL-N-(4-HYDROXYBUTYL)NITROSAMINE, 3817-11-6, Dose [Inhibitor]: 25 MG/KG IN 4 WK CYCLES OF 1/WK FOR 3 WK AND 1 WK REST STARTING 1 WK AFTER CARCINOGEN ADMINISTRATION THROUGH END OF STUD, Route [Inhibitor]: INTRAPERITONEAL, Species: MOUSE, Strain/Sex: BDF1/MALE, Target Tissue: Type of Lesion: URINARY BLADDER: TRANSITIONAL CELL CARCINOMA, Dose [Carcinogen]: 7.5 MG 1/WK FOR 8 WK, Promoter: NONE USED): 19/50 (38%), 7/46 (15%), 61%, p<0.05; tumour outcome (control, treated, inhibition, significance) (Carcinogen: N-BUTYL-N-(4-HYDROXYBUTYL)NITROSAMINE, 3817-11-6, Dose [Inhibitor]: 25 MG/KG IN 4 WK CYCLES OF 3 WK DOSE (1 DOSE/WK) AND 1 WK REST STARTING 1 WK AFTER CARCINOGEN DOSE THROUGH END OF STUDY, Route [Inhibitor]: INTRAPERITONEAL, Species: MOUSE, Strain/Sex: DBF1/MALE, Target Tissue: Type of Lesion: URINARY BLADDER: TRANSITIONAL CELL CARCINOMA, Dose [Carcinogen]: 7.5 MG 1/WK FOR 8 WK, Promoter: NONE USED): 19/50 (38%), 7/46 (15%), 61%, p<0.05; tumour outcome (control, treated, inhibition, significance) (Carcinogen: N-METHYL-N-NITROSOUREA, 684-93-5, Dose [Inhibitor]: 12.5 MG/KG IN 4 WK CYCLES OF 1/WK FOR 3 WK AND 1 WK REST STARTING 7 D AFTER CARCINOGEN ADMINISTRATION THROUGH END OF STU, Route [Inhibitor]: INTRAPERITONEAL, Species: RAT, Strain/Sex: SPRAGUE-DAWLEY/FEMALE, Target Tissue: Type of Lesion: MAMMARY GLAND: ADENOCARCINOMA, Dose [Carcinogen]: 20 MG/KG BW ONCE, Promoter: NONE USED): 64%, 52%, 19%, not significant; tumour outcome (control, treated, inhibition, significance) (Carcinogen: N-METHYL-N-NITROSOUREA, 684-93-5, Dose [Inhibitor]: 12.5 MG/KG IN 4 WK CYCLES OF 3 WK DOSE (1 DOSE/WK) AND 1 WK REST STARTING 7 D AFTER CARCINOGEN DOSE THROUGH THE END OF S, Route [Inhibitor]: INTRAPERITONEAL, Species: RAT, Strain/Sex: SPRAGUE-DAWLEY/FEMALE, Target Tissue: Type of Lesion: MAMMARY GLAND: ADENOCARCINOMA, Dose [Carcinogen]: 20 MG/KG BW ONCE, Promoter: NONE USED): 64%, 52%, 19%, not significant; tumour outcome (control, treated, inhibition, significance) (Carcinogen: N-METHYL-N-NITROSOUREA, 684-93-5, Dose [Inhibitor]: 25 MG/KG IN 4 WK CYCLES OF 1/WK FOR 3 WK AND 1 WK REST STARTING 7 D AFTER CARCINOGEN ADMINISTRATION THROUGH END OF STUDY, Route [Inhibitor]: INTRAPERITONEAL, Species: RAT, Strain/Sex: SPRAGUE-DAWLEY/FEMALE, Target Tissue: Type of Lesion: MAMMARY GLAND: ADENOCARCINOMA, Dose [Carcinogen]: 20 MG/KG BW ONCE, Promoter: NONE USED): 64%, 50%, 22%, not significant; tumour outcome (control, treated, inhibition, significance) (Carcinogen: N-METHYL-N-NITROSOUREA, 684-93-5, Dose [Inhibitor]: 25 MG/KG IN 4 WK CYCLES OF 3 WK DOSE (1 DOSE/WK) AND 1 WK REST STARTING 7 D AFTER CARCINOGEN DOSE THROUGH END OF STUDY (, Route [Inhibitor]: INTRAPERITONEAL, Species: RAT, Strain/Sex: SPRAGUE-DAWLEY/FEMALE, Target Tissue: Type of Lesion: MAMMARY GLAND: ADENOCARCINOMA, Dose [Carcinogen]: 20 MG/KG BW ONCE, Promoter: NONE USED): 64%, 50%, 22%, not significant

Which “tumour outcome (control, treated, inhibition, significance)” value (Carcinogen: DIETHYLNITROSAMINE, 55-18-5, Dose [Inhibitor]: 0, 600 MG/KG BW BY INTRAPERITONEAL INJECTION ON DAYS 13, 14 AND 15 OF AGE THEN 4 G/KG DIET FROM 21 TO 161 DAYS OF AGE (S, Route [Inhibitor]: INTRAPERITONEAL, ORAL, Species: MOUSE, Strain/Sex: C3H/MALE, Target Tissue: Type of Lesion: LIVER: ADENOMA, Dose [Carcinogen]: 4 MG/KG IN TRICAPRYLIN ONCE ON DAY 15 OF AGE, Promoter: NONE USED) does the source give for `O=C1N[C@H](C(=O)O)CS1` here?
The value was 100%, 100%, 0%, not significant.

With `N#Cc1ccc(C(c2ccc(C#N)cc2)n2cncn2)cc1` as the molecule, how does the “tumour outcome (control, treated, inhibition, significance)” value (Carcinogen: NONE, Dose [Inhibitor]: 0, 0.1 MG/KG BW/D FOR 104 WK (STUDY DURATION: 104 WK), Route [Inhibitor]: NOT SPECIFIED, Species: RAT, Strain/Sex: SPRAGUE-DAWLEY/FEMALE, Target Tissue: Type of Lesion: REPRODUCTIVE TRACT (DISTAL): BENIGN GRANULAR CELL TUMOR, Promoter: NONE) read?
The value was 7/60 (12%), 0/60 (0%), 100%, not calculated.

What about the “tumour outcome (control, treated, inhibition, significance)” value (Carcinogen: NONE, Dose [Inhibitor]: 0, 1 MG/KG BW/D FOR 104 WK (STUDY DURATION: 104 WK), Route [Inhibitor]: NOT SPECIFIED, Species: RAT, Strain/Sex: SPRAGUE-DAWLEY/FEMALE, Target Tissue: Type of Lesion: REPRODUCTIVE TRACT (DISTAL): BENIGN GRANULAR CELL TUMOR, Promoter: NONE) of the same molecule?
The value was 7/60 (12%), 0/60 (0%), 100%, not calculated.

And the “tumour outcome (control, treated, inhibition, significance)” value (Carcinogen: NONE, Dose [Inhibitor]: 0, 10 MG/KG BW/D FOR 104 WK (STUDY DURATION: 104 WK), Route [Inhibitor]: NOT SPECIFIED, Species: RAT, Strain/Sex: SPRAGUE-DAWLEY/FEMALE, Target Tissue: Type of Lesion: REPRODUCTIVE TRACT (DISTAL): BENIGN GRANULAR CELL TUMOR, Promoter: NONE)?
Its value is 7/60 (12%), 0/60 (0%), 100%, not calculated.
